# According to patent US20060264498A1, “Anti-obesity agent” (Kyowa Hakko Kogyo Co., Ltd., priority 2003, published 2006):
# System: KK-Ay/Ta Jc1 mice
# Assay: Body weight increase per ingested feed amount in obesity type 2 diabetic model mice
# Format: in vivo
# Settings: KK-Ay/Ta Jc1 male mice, 1% by weight in CE-2 feed; for Body Weight Increase/ Ingested Feed Amount (%): free intake, initial day to 17th day, mean value ± standard error (n=5); for body weight increase per ingested feed amount as compared with group 1 (CE-2 feed only): 17 days, t-test
# Description: KK-Ay/Ta Jc1 mice (Clea Japan, Inc.; male; six weeks age)(15 mice) of an obesity type 2 diabetic model were divided into three groups each comprising five and named group 1 to group 3.
# The mice of the groups 1 to 3 were made free to take feed and water. A commercially available feed CE-2 (manufactured by Clea Japan, Inc.) was ingested to the mice of group 1. CE-2 to which 1% by weight of trans-4-hydroxy-L-proline (manufactured by Kyowa Hakko Kogyo; hereinafter, abbreviated as the hydroxyproline) was added was ingested to the mice of group 2. CE-2 to which 1% by weight of trans-N-acetyl-4-hydroxy-L-proline (manufactured by Kyowa Hakko Kogyo; hereinafter, abbreviated as the N-acetylhydroxyproline) was added was ingested to the mice of group 3.
# Body weight on the initial day of the test and on the 17th day and amount of the ingested feed from the initial day of the test to the 17th day were measured. As an index for the progress of obesity, a body weight increase during the test period for the total ingested feed amount during the test period was calculated for each mouse. The value was shown in terms of mean value±standard error (n=5) and statistic ratio of risk (p value) was determined by a t-test.
Compound,Body Weight Increase/ Ingested Feed Amount (%),body weight increase per ingested feed amount as compared with group 1 (CE-2 feed only)
"CC(=O)N1C[C@H](O)C[C@H]1C(=O)O [N-acetylhydroxyproline, trans-N-acetyl-4-hydroxy-L-proline]",4.2 ± 0.6,significantly low
"O=C(O)[C@@H]1C[C@@H](O)CN1 [hydroxyproline, trans-4-hydroxy-L-proline]",5.8 ± 0.4,tended to show low value
